Results published in patent publication US20260097037A1, “FUSED RING COMPOUND HAVING GLP-1 RECEPTOR AGONIST EFFECT” (Shionogi & Co., Ltd., priority 2022, published 2026).

Target: T1, Human GLP-1 receptor stably expressing cells (hGLP-1R/CHO-K1 cells) (Homo sapiens, UniProt P43220)
T1 construct: expressed in transfected cells
Assay: Measurement of GLP-1 receptor agonist activity (cAMP assay)
Assay type: cell-based
Settings: for Emax: CHO-K1, maximum effect, cAMP with 2 nM human GLP-1 (7-36) = 100%, DMSO only = 0%, read-out: Emax; for EC50: increase in cAMP concentration in hGLP-1R/CHO-K1 cells, 37° C. 1 hour
Procedure, shortened: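 hGLP-1R/CHO-K1 cells (cryopreserved) incubated with compound and forskolin in HBSS with 0.1% BSA, IBMX and RO20-1724, 1 h at 37° C; cAMP read by HTRF. EC50 and Emax from cAMP rise, normalised to 2 nM human GLP-1 (7-36) (100%) and DMSO (0%).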

T1 sequence (P43220 24-463): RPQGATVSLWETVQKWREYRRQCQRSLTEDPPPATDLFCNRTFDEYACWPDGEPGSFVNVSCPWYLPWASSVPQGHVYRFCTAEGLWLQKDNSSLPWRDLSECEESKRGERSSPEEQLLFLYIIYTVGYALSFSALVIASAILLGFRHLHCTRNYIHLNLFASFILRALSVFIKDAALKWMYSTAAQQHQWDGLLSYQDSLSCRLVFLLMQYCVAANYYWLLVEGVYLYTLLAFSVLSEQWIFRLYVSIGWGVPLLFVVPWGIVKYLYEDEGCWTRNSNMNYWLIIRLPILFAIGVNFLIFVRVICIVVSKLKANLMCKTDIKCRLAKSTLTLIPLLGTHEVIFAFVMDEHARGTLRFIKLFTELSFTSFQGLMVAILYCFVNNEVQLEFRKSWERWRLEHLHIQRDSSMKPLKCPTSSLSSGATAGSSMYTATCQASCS

| Emax | EC50 | Structure (SMILES) |
| --- | --- | --- |
| 124% | 0.0625 nM | COc1cc(C(=O)O)cc2c1nc(CN1CCc3cc(C#N)c(OCc4ccc(Cl)cc4)nc3[C@@H]1C)n2C[C@@H]1CCO1 [Compound I-144] |
| 126% | 0.368 nM | C[C@H]1c2nc(OCc3ccc(C#N)cc3F)c(Cl)cc2CCN1Cc1nc2ccc(C(=O)O)nc2n1C[C@@H]1CCO1 [Compound I-032] |
| 101% | 0.0658 nM | COc1cc(C(=O)O)cc2c1nc(CN1CCc3cc(Cl)c(OCc4ccc(F)cc4)nc3[C@@H]1C)n2C[C@@H]1CCO1 [Compound I-073] |
| 118% | 0.0326 nM | COc1cc(C(=O)O)cc2c1nc(CN1CCc3cc(C#N)c(OCc4ccc(Cl)cc4F)nc3[C@@H]1C)n2C[C@@H]1CCO1 [Compound I-139] |
| 117% | 1.99 nM | C[C@H]1c2cc(OCc3cc(F)c(Cl)cc3F)c(C(F)F)cc2CCN1Cc1nc2ccc(C(=O)O)cc2n1C[C@@H]1CCO1 [Compound I-010] |
| 110% | 0.191 nM | C[C@H]1c2nc(OCc3ccc(Cl)cn3)c(C(F)F)cc2CCN1Cc1nc2c(F)cc(C(=O)O)cc2n1C[C@@H]1CCO1 [Compound I-112] |
| 111% | 0.106 nM | C[C@H]1c2nc(OCc3c(F)cc(C#N)cc3F)c(C(F)(F)F)cc2CCN1Cc1nc2ccc(C(=O)O)cc2n1C[C@@H]1CCO1 [Compound I-107] |
| 122% | 0.105 nM | C[C@H]1c2nc(OCc3ccc(F)cc3F)c(Cl)cc2CCN1Cc1nc2ccc(C(=O)O)c(F)c2n1C[C@@H]1CCO1 [Compound I-037] |
| 96.3% | 1.46 nM | Cc1cc(-c2cc(C(=O)O)cc3c2nc(CN2CCc4cc(C(F)(F)F)c(OCc5ccc(Cl)cc5F)nc4[C@@H]2C)n3C[C@@H]2CCO2)on1 [Compound I-179] |
| 119% | 0.148 nM | C[C@H]1c2nc(OCc3ccc(F)cc3F)c(C(F)F)cc2CCN1Cc1nc2ccc(C(=O)O)c(F)c2n1C[C@@H]1CCO1 [Compound I-121] |
| 105% | 0.147 nM | C[C@H]1c2nc(OCc3c(F)cc(Cl)cc3F)c(C(F)F)cc2CCN1Cc1nc2ccc(C(=O)O)cc2n1C[C@@H]1CCO1 [Compound I-060] |
| 122% | 0.0208 nM | COc1cc(C(=O)O)cc2c1nc(CN1CCc3cc(Cl)c(OCc4ccc(Cl)cc4F)nc3[C@@H]1C)n2C[C@@H]1CCO1 [Compound I-076] |
| 146% | 0.903 nM | C[C@H]1c2c(cc(C(F)(F)F)c3c2O[C@@](C)(c2ccc(Cl)cc2F)O3)CCN1Cc1nc2ccc(C(=O)O)cc2n1C[C@@H]1CCO1 [Compound I-047] |
| 118% | 0.073 nM | C[C@H]1c2nc(OCc3ccc(Cl)cc3F)c(C#N)cc2CCN1Cc1nc2c(Cl)cc(C(=O)O)cc2n1C[C@@H]1CCO1 [Compound I-184] |
| 118% | 0.314 nM | C[C@H]1c2nc(OCc3cc(F)c(Cl)cc3F)c(Cl)cc2CCN1Cc1nc2ccc(C(=O)O)nc2n1C[C@@H]1CCO1 [Compound I-031] |
| 122% | 0.0569 nM | C[C@H]1c2nc(OCc3c(F)cc(Cl)cc3F)c(C#N)cc2CCN1Cc1nc2c(Cl)cc(C(=O)O)cc2n1C[C@@H]1CCO1 [Compound I-185] |
| 109% | 0.168 nM | Cc1cc2c(nc1OCc1ccc(Cl)cc1F)[C@H](C)N(Cc1nc3ccc(C(=O)O)cc3n1C[C@@H]1CCO1)CC2 [Compound I-002] |
| 110% | 0.0683 nM | C[C@H]1c2nc(OCc3ccc(Cl)cc3Cl)c(C(F)F)cc2CCN1Cc1nc2c(F)cc(C(=O)O)cc2n1C[C@@H]1CCO1 [Compound I-111] |
| 100% | 0.0849 nM | C[C@H]1c2nc(OCc3ccc(Cl)cc3)c(Cl)cc2CCN1Cc1nc2c(F)cc(C(=O)O)cc2n1C[C@@H]1CCO1 [Compound I-082] |
| 92.7% | 0.924 nM | C[C@H]1c2nc(OCc3ccc(Cl)cn3)c(C(F)F)cc2CCN1Cc1nc2ccc(C(=O)O)cc2n1C[C@@H]1CCO1 [Compound I-058] |
| 113% | 0.432 nM | C[C@H]1c2nc(OCc3ccccc3Cl)c(Cl)cc2CCN1Cc1nc2ccc(C(=O)O)c(F)c2n1C[C@@H]1CCO1 [Compound I-036] |
| 124% | 0.0152 nM | COc1cc(C(=O)O)cc2c1nc(CN1CCc3cc(C(F)(F)F)c(NCc4c(F)cc(Cl)cc4F)nc3[C@@H]1C)n2C[C@@H]1CCO1 [Compound I-171] |
| 113% | 0.043 nM | C[C@H]1c2nc(OCc3ccc(C#N)cc3F)c(C(F)F)cc2CCN1Cc1nc2c(F)cc(C(=O)O)cc2n1C[C@@H]1CCO1 [Compound I-115] |
| 110% | 0.0683 nM | COc1cc(C(=O)O)cc2c1nc(CN1CCc3cc(Cl)c(OCc4ccc(OC(F)F)cc4F)nc3[C@@H]1C)n2C[C@@H]1CCO1 [Compound I-071] |
| 99.3% | 0.215 nM | C[C@H]1c2nc(OCc3cc(F)c(Cl)cc3F)c(C(F)F)cc2CCN1Cc1nc2ccc(C(=O)O)cc2n1C[C@@H]1CCO1 [Compound I-062] |

| Emax | EC50 | Structure (SMILES) |
| --- | --- | --- |
| 103% | 0.248 nM | C[C@H]1c2nc(OCc3ccc(F)cc3)c(Cl)cc2CCN1Cc1nc2c(F)cc(C(=O)O)cc2n1C[C@@H]1CCO1 [Compound I-087] |
| 101% | 0.671 nM | C[C@H]1c2c(cc(C(F)(F)F)c3c2O[C@@](C)(c2ccc(Cl)cn2)O3)CCN1Cc1nc2c(F)cc(C(=O)O)cc2n1C[C@@H]1CCO1 [Compound I-156] |
| 97% | 0.902 nM | C[C@H]1c2nc(OCc3ccccc3Cl)c(C(F)F)cc2CCN1Cc1nc2ccc(C(=O)O)cc2n1C[C@@H]1CCO1 [Compound I-055] |
| 128% | 0.162 nM | COc1cc(C(=O)O)cc2c1nc(CN1CCc3cc(C#N)c(OCc4ccc(Cl)cn4)nc3[C@@H]1C)n2C[C@@H]1CCO1 [Compound I-147] |
| 105% | 0.243 nM | COc1cc(C(=O)O)cc2c1nc(CN1CCc3cc(C(F)(F)F)c4c(c3[C@@H]1C)O[C@@](C)(c1ccc(Cl)cc1F)O4)n2C[C@@H]1CCO1 [Compound I-170] |
| 121% | 0.104 nM | C[C@H]1c2nc(OCc3ccc(C#N)cc3F)c(C(F)F)cc2CCN1Cc1nc2ccc(C(=O)O)c(F)c2n1C[C@@H]1CCO1 [Compound I-127] |
| 96.3% | 6.34 nM | C[C@H]1c2c(ccc3c2OC(C)(c2ccc(Cl)cn2)O3)CCN1Cc1nc2ccc(C(=O)O)cc2n1C[C@@H]1CCO1 (stereo partly shown) [Compound I-093] |
| 103% | 0.249 nM | C[C@H]1c2nc(OCc3ccc(Cl)cc3F)c(Cl)cc2CCN1Cc1nc2ccc(C(=O)O)nc2n1C[C@@H]1CCO1 [Compound I-034] |
| 121% | 0.481 nM | C[C@H]1c2nc(OCc3ccccc3Cl)c(C(F)F)cc2CCN1Cc1nc2ccc(C(=O)O)c(F)c2n1C[C@@H]1CCO1 [Compound I-120] |
| 66.3% | 83.5 nM | Cc1nc(COc2nc3c(cc2C(F)(F)F)CCN(Cc2nc4ccc(C(=O)O)cc4n2C[C@@H]2CCO2)[C@H]3C)no1 [Compound I-160] |
| 83.3% | 32.3 nM | C[C@H]1c2nc(OCc3nc4ccccn4n3)c(C(F)(F)F)cc2CCN1Cc1nc2ccc(C(=O)O)cc2n1C[C@@H]1CCO1 [Compound I-163] |
| 106% | 0.0739 nM | C[C@H]1c2nc(OCc3ccc(Cl)cc3F)c(Cl)cc2CCN1Cc1nc2c(F)cc(C(=O)O)cc2n1C[C@@H]1CCO1 [Compound I-089] |
| 92.3% | 0.195 nM | C[C@H]1c2nc(OCc3ccc(C#N)cc3F)c(C(F)F)cc2CCN1Cc1nc2ccc(C(=O)O)cc2n1C[C@@H]1CCO1 [Compound I-063] |
| 96.3% | 0.174 nM | C[C@H]1c2nc(OCc3ccc(Cl)cc3F)c(C(F)(F)F)nc2CCN1Cc1nc2ccc(C(=O)O)cc2n1C[C@@H]1CCO1 [Compound I-174] |
| 127% | 0.275 nM | C[C@H]1c2nc(OCc3ccc(Cl)cn3)c(C(F)F)cc2CCN1Cc1nc2ccc(C(=O)O)c(F)c2n1C[C@@H]1CCO1 [Compound I-123] |
| 115% | 0.252 nM | C[C@H]1c2nc(OCc3ccc(Cl)cc3)c(C(F)F)cc2CCN1Cc1nc2ccc(C(=O)O)cc2n1C[C@@H]1CCO1 [Compound I-052] |
| 111% | 3.39 nM | Cc1ccc(COc2cc3c(cc2C(F)F)CCN(Cc2nc4ccc(C(=O)O)cc4n2C[C@@H]2CCO2)[C@H]3C)cc1 [Compound I-005] |
| 106% | 0.0375 nM | COc1cc(C(=O)O)cc2c1nc(CN1CCc3cc(Cl)c(OCc4ccc(Cl)cc4)nc3[C@@H]1C)n2C[C@@H]1CCO1 [Compound I-066] |
| 104% | 0.193 nM | C[C@H]1c2nc(NCc3ccc(Cl)cc3)c(C(F)(F)F)cc2CCN1Cc1nc2c(Cl)cc(C(=O)O)cc2n1C[C@@H]1CCO1 [Compound I-168] |
| 96.7% | 0.179 nM | C[C@H]1c2nc(OCc3ccc(Cl)cn3)c(Cl)cc2CCN1Cc1nc2c(F)cc(C(=O)O)cc2n1C[C@@H]1CCO1 [Compound I-081] |
| 123% | 0.0299 nM | COc1cc(C(=O)O)cc2c1nc(CN1CCc3cc(C(F)F)c(OCc4ccc(F)cc4F)nc3[C@@H]1C)n2C[C@@H]1CCO1 [Compound I-131] |
| 104% | 0.0232 nM | COc1cc(C(=O)O)cc2c1nc(CN1CCc3cc(Cl)c(OCc4c(F)cc(Cl)cc4F)cc3[C@@H]1C)n2C[C@@H]1CCO1 [Compound I-074] |
| 120% | 0.531 nM | C[C@H]1c2nc(OCc3ccccc3Cl)c(C#N)cc2CCN1Cc1nc2c(Cl)cc(C(=O)O)cc2n1C[C@@H]1CCO1 [Compound I-181] |
| 105% | 0.0992 nM | C[C@H]1c2nc(NCc3ccc(Cl)cc3F)c(C(F)(F)F)cc2CCN1Cc1nc2c(F)cc(C(=O)O)cc2n1C[C@@H]1CCO1 [Compound I-152] |
| 135% | 0.151 nM | C[C@H]1c2nc(OCc3c(F)cc(F)cc3F)c(C#N)cc2CCN1Cc1nc2c(Cl)cc(C(=O)O)cc2n1C[C@@H]1CCO1 [Compound I-183] |
